Assay results taken from patent publication US20120003310A1 (priority 2009, published 2012).
One block for each compound: values may come before it.

Tests used:
[1] = citrate salt of the drug substance, per reference; cited from earlier work
[2] = Rasagiline citrate salt formation in solvents: extractable free rasagiline base (toluene extraction, TLC), pH, NMR equivalents; conditions: for Extracted R-PAI (%) / Extracted R-PAI (amount): free rasagiline base extracted or filtered from the citrate salt solution, solvent and mole proportions per example; for pH (after extraction of R-PAI): value in parentheses
From the text: (§1) The combined toluenic extract was evaporated to dryness.
as §1

[3] = per reference; cited from earlier work
[4] = per reference; cited from earlier work; remark: listed apart in the source
[5] = Hygroscopicity: citrate salts exposed to atmospheric air in open dishes at ambient temperature; format: physicochemical; conditions: for Changes on exposure to atmosphere (appearance): open dish, ambient temperature
From the text: (§2) The changes were observed and recorded.

[6] = Appearance of citrate salts stored in closed sealed glass vials in refrigerator at 7±2° C.; format: physicochemical; conditions: sealed glass vial, refrigerator 7±2° C.
From the text: as §2

[7] = such as hexane, toluene and ethylacetate
[8] = AZILECT Product Label, May 2006; cited from earlier work
[9] = Aqueous solubility of rasagiline base and rasagiline salts
[10] = time of exposure 1:50-2:00 hrs:min

Compound: C[C@@H]1CCCN1CCc1ccc2cc(-n3ncccc3=O)ccc2c1
Polynorpb [1]: Crystalline

Compound: N#Cc1ccc2[nH]c(O)c(-c3ccc(CN4CCOCC4)cn3)c2c1
Polynorpb [1]: Crystalline

Compound: C[C@@H]1CCN(C(=O)CC#N)C[C@@H]1N(C)c1ncnc2[nH]ccc12
Polynorpb [1]: Crystalline

Compound: CN1CCN(c2ccccc2C=C2SCCN(c3ccc(Cl)c(Cl)c3)C2=O)CC1
Polynorpb [1]: Crystalline

Compound: Cc1ccc(NC(=O)c2ccc(CN3CCN(C)CC3)cc2)cc1Nc1nccc(-c2cccnc2)n1
Polynorpb [1]: Crystalline

Compound: Cc1[nH]c(C=C2C(=O)Nc3ccc(F)cc32)c(C)c1C(=O)NCCN1CCCC1
Polynorpb [1]: Crystalline

Compound: O=C(O)CC(O)(CC(=O)O)C(=O)O.c1cnc2cc3c(cc2n1)C1CNCC3C1
Polynorpb [1]: Crystalline

Compound: C#CCN[C@@H]1CCc2ccccc21.O=C(O)CC(O)(CC(=O)O)C(=O)O
free rasagiline that may be extracted from the aqueous solution of the salt [2]: A few percent
stability of the salt in solvents ([2]; aqueous and other solutions (alcohol, MEK, acetone)): stable in most solvents

Compound: Cl [Chloride]
Hygroscopicity by KF [3]: Not hygroscopic

Compound: C#CCN[C@@H]1CCc2ccccc21.C#CCN[C@@H]1CCc2ccccc21.O=S(=O)(O)CCS(=O)(=O)O [Edisilate]
Hygroscopicity by KF [3]: Not hygroscopic

Compound: C#CCN[C@@H]1CCc2ccccc21.CCS(=O)(=O)O [Esylate]
Water solubility [4]: >=300 mg/ml

Compound: C#CCN[C@@H]1CCc2ccccc21.O=C(O)CC(O)(CC(=O)O)C(=O)O [Example 4b]
Changes on exposure to atmosphere (appearance) ([5]; time of exposure 0:00 hrs:min): Powder
Changes on exposure to atmosphere (appearance) [5, 10]: Semi-solid
Changes on exposure to atmosphere (appearance) ([5]; time of exposure 6:00 hrs:min): Syrup
Changes on exposure to atmosphere (appearance) ([5]; time of exposure 7:00 hrs:min): Syrup
Appearance ([6]; storage 0 months): White powder
Appearance ([6]; storage 3 months): White powder
Appearance ([6]; storage 6 months): White powder

Compound: C#CCN[C@@H]1CCc2ccccc21.C#CCN[C@@H]1CCc2ccccc21.O=C(O)CC(O)(CC(=O)O)C(=O)O [Example 4c]
Changes on exposure to atmosphere (appearance) ([5]; time of exposure 0:00 hrs:min): Powder
Changes on exposure to atmosphere (appearance) ([5]; time of exposure 0:50-1:00 hrs:min): Powder
Changes on exposure to atmosphere (appearance) ([5]; time of exposure 0:30 hrs:min): Powder
Changes on exposure to atmosphere (appearance) [5, 10]: Powder
Changes on exposure to atmosphere (appearance) ([5]; time of exposure 5:00 hrs:min): Lump powder
Appearance ([6]; storage 0 months): White powder
Appearance ([6]; storage 3 months): White powder
Appearance ([6]; storage 6 months): White powder

Compound: C#CCN[C@@H]1CCc2ccccc21.C#CCN[C@@H]1CCc2ccccc21.C#CCN[C@@H]1CCc2ccccc21.O=C(O)CC(O)(CC(=O)O)C(=O)O [Example 4d]
Changes on exposure to atmosphere (appearance) ([5]; time of exposure 0:00 hrs:min): Powder
Changes on exposure to atmosphere (appearance) ([5]; time of exposure 0:30 hrs:min): Powder
Changes on exposure to atmosphere (appearance) ([5]; time of exposure 5:00 hrs:min): Semi-solid
Changes on exposure to atmosphere (appearance) ([5]; time of exposure 6:00 hrs:min): Semi-solid
Appearance ([6]; storage 0 months): White powder
Appearance ([6]; storage 3 months): White powder
Appearance ([6]; storage 6 months): White powder

Compound: C#CCN[C@@H]1CCc2ccccc21.O=C(O)CC(O)(CC(=O)O)C(=O)O [Example 19.1]
Extracted R-PAI (%) [2]: 1.75%
Extracted R-PAI (amount) [2]: 0.06 g

Compound: C#CCN[C@@H]1CCc2ccccc21.O=C(O)CC(O)(CC(=O)O)C(=O)O [Example 19.4]
Extracted R-PAI (%) [2]: (22%)
Extracted R-PAI (amount) [2]: 1.51 g

Compound: C#CCN[C@@H]1CCc2ccccc21.O=C(O)CC(O)(CC(=O)O)C(=O)O [Example 19.6]
Extracted R-PAI (%) [2]: (43.3%)
Extracted R-PAI (amount) [2]: 4.44 g

Compound: C#CCN[C@@H]1CCc2ccccc21.O=C(O)CC(O)(CC(=O)O)C(=O)O [Example 19.7]
Extracted R-PAI (%) [2]: (38.2%)
Extracted R-PAI (amount) [2]: 3.92 g

Compound: C#CCN[C@@H]1CCc2ccccc21.O=C(O)CC(O)(CC(=O)O)C(=O)O [Example 19.13]
Extracted R-PAI (%) [2]: (48%)
Extracted R-PAI (amount) [2]: 2.47 g

Compound: C#CCN[C@@H]1CCc2ccccc21.O=C(O)CC(O)(CC(=O)O)C(=O)O [Example 19.14]
pH (after extraction of R-PAI) [2]: 3.49
pH ([2]; value outside parentheses, before extraction of R-PAI): 3.53

Compound: C#CCN[C@@H]1CCc2ccccc21.O=C(O)CC(O)(CC(=O)O)C(=O)O [Example 19.17]
pH (after extraction of R-PAI) [2]: (3.41)

Compound: C#CCN[C@@H]1CCc2ccccc21 [Mesylate]
Hygroscopicity by KF [3]: Not hygroscopic

Compound: C#CCN[C@@H]1CCc2ccccc21 [Solid R-PAI (Free Base)]
Hygroscopicity by KF [3]: Not hygroscopic
Water solubility [4]: low

Compound: O=C(O)CC(O)(CC(=O)O)C(=O)O [citric acid]
Hygroscopicity by KF [3]: low

Compound: C#CCN[C@@H]1CCc2ccccc21 [rasagiline, R(+)-N-propargyl-1-aminoindan]
solubility in non-polar organic solvents [7]: very soluble
absolute bioavailability [8]: about 36%
amount dissolving in aqueous reaction solution of citric acid [9]: more than 10 wt %

Compound: Oxalate
Hygroscopicity by KF [3]: Not hygroscopic

Compound: Phosphate
Water solubility [4]: >=720 mg/ml

Compound: Tosylate
Water solubility [4]: 60 to 70 mg/mL

hygroscopicity compared to rasagiline base and other rasagiline salts ([5]; Tables 22b and 22c): highest hygroscopicity
water solubility compared to rasagiline base and other rasagiline salts ([9]; Tables 22b and 22c): highest water solubility
Compound: rasagiline citrate
